The record followed here is ChEMBL document CHEMBL3044546, “Synthesis of inhibitors of imidazole glycerol phosphate dehydratase” (Bioorg Med Chem Lett, 1996).

One assay has as its system Saccharomyces cerevisiae. As to the kind of experiment: Inhibition of Saccharomyces cerevisiae imidazole glycerol-phosphate dehydratase expressed in Escherichia coli at 1 uM.
The nature of assay [1]: Inhibition of Saccharomyces cerevisiae imidazole glycerol-phosphate dehydratase expressed in Escherichia coli.

Molecule `O=P(O)(O)COCC(O)Cn1cncn1` (centres undefined) returned an inhibition in the assay with Saccharomyces cerevisiae of 80%. Moreover, the IC50 in assay [1] was less than 1 µM.
In assay [1], `O=P(O)(O)CSCC(O)Cn1cncn1` (centres undefined) showed an IC50 of 7 µM.
Still for that read-out and setting: the value for `O=C(O)C(CCCC(O)c1nc[nH]n1)C(=O)O` (centres undefined) was more than 500 µM.
With `O=P(O)(O)CCCCC(O)c1nc[nH]n1` (centres undefined), 80 µM corresponded to half-maximal inhibition in assay [1] (IC50).
On the same count and under the same terms, the value for `CNC(CC(O)CCP(=O)(O)O)c1nc[nH]n1` (centres undefined) was 10 µM.
In the case of `O=P(O)(O)COCCNc1nc[nH]n1`, the IC50 in assay [1] worked out at 5 µM.
The same measure, in the same setting: the same measure for `O=C(O)C(CCC(O)c1nc[nH]n1)C(=O)O` (centres undefined): 6 µM.
With `O=P(O)(O)CC(O)Cn1cncn1` (centres undefined), in assay [1], the Ki amounted to 0.0006 µM.
In assay [1], `O=C(O)C(OCC(O)Cn1cncn1)C(=O)O` (centres undefined) showed an IC50 of 100 µM.
In assay [1], `O=P(O)(O)CCC(O)c1nc[nH]n1` (centres undefined) yielded an IC50 of 0.13 µM and a Ki of 0.04 µM.
Molecule `O=C(O)C(OCCC(O)Cn1cncn1)C(=O)O` (centres undefined) came in with an IC50 in assay [1] of 30 µM.
On to `O=C(O)C(CC(O)c1nc[nH]n1)C(=O)O` (centres undefined), for which the IC50 in assay [1] was more than 500 µM.

The term inhibition denotes the relative decrease from the control value, in per cent. Lower therefore signals a weak effect. By IC50 is commonly meant the concentration that gives 50% inhibition. Lower therefore signals greater potency. The term Ki denotes the dissociation constant of the complex between target and ligand, obtained from inhibition or displacement. A high value points to a looser hold on the target.
